Drawing on ChEMBL document CHEMBL1140422, “A new bisintercalating anthracycline with picomolar DNA binding affinity” (J Med Chem, 2005), this text covers IC50 and IC75 for three molecules.

The assay deals with Jurkat. Put plainly: Cytotoxicity against Jurkat T lymphocytes by MTT assay. Format: functional, cell-based. To be noted: Homo sapiens. Background: Formazan colour is commonly taken as a measure of viable cells.
Molecule `COc1cccc2c1C(=O)c1c(O)c3c(c(O)c1C2=O)C[C@@](O)(C(C)=O)C[C@@H]3O[C@H]1C[C@H](NCc2cccc(CN[C@@H]3C[C@@H](O[C@H]4C[C@](O)(C(C)=O)Cc5c(O)c6c(c(O)c54)C(=O)c4c(OC)cccc4C6=O)O[C@H](C)[C@@H]3O)c2)[C@H](O)[C@H](C)O1` had an IC50 of 0.017 µM and an IC75 of 0.0535 µM.
In the same order, the values of `COc1cccc2c1C(=O)c1c(O)c3c(c(O)c1C2=O)C[C@@](O)(C(C)=O)C[C@@H]3O[C@H]1C[C@H](NCc2ccc(CN[C@@H]3C[C@@H](O[C@H]4C[C@](O)(C(C)=O)Cc5c(O)c6c(c(O)c54)C(=O)c4c(OC)cccc4C6=O)O[C@H](C)[C@@H]3O)cc2)[C@H](O)[C@H](C)O1` are 0.0177 µM and 0.06 µM.
In the same order, the values of `COc1cccc2c1C(=O)c1c(O)c3c(c(O)c1C2=O)C[C@@](O)(C(C)=O)C[C@@H]3O[C@H]1C[C@H](N)[C@H](O)[C@H](C)O1` [DAUNORUBICIN] are 0.0826 µM and 0.182 µM.

What is called IC50 is the point on the concentration scale where inhibition reaches its midpoint. A low value points to higher potency. The term IC75 denotes the concentration needed for an effect of 75%. Read a high IC75 as a need for much substance.
